Entries after “also recorded” stand apart in the source; their conditions may differ.

Format in all cases: cell-based
The test system of one assay is MDA-MB-468 cells. Nature of the assay: Cell cycle analysis using flow cytometry. On the procedure:
MDA-MB-468 cells in a 6-well plate at 10% confluence were treated with HNE alkyne or the indicated drug at PI60 or PI80 concentration for 72 hours at 37° C. Negative control contained the equivalent volume of DMSO. Cells were grown and analyzed in separate batches of 1-2 replicates per condition that were run 2-3 times each. Each time the data points were normalized to the control set for each batch. At the indicated time post compound treatment, the culture medium was aspirated and the adherent cells were detached from the plate using trypsin, quenched with complete media, centrifuged (700 g), washed once with PBS, centrifuged (700 g), resuspended in PBS, then fixed with 70% ethanol for 24 hours. The cell suspensions were spun down at 1,000 g and washed with 500 μl of PBS twice. Each cell pellet was treated with 500 μL staining solution containing 50 μl of Ribonuclease A (≥70 Kunitz units/mg proteins, R6513, Sigma-Aldrich) and 50 μl of a propidium iodide (1 mg/ml, Sigma-Aldrich) solution in PBS with 1% BSA. The resulting solution was incubated with agitation at room temperature for 30 min in the dark.
The stained cells were assayed on a BD LSR II flow cytometer. FlowJo® was used to deconvolute the signals. Cells were grouped first by forward and side scatter (area), then that group was regrouped using forward (width) versus forward (area) scatter to give single cells. Cells were than analyzed using cellular DNA content to quantitate the percentage of cells in the respective phases (G1, S, G2/M and sub-G0) of the cell cycle.
In general terms: In flow cytometry, cells or beads pass a laser one at a time.

Assay [1] has as its system Akt1, Akt2, Akt3 isoforms. Nature of the assay: Akt isoform selectivity of covalent inhibition (in-gel fluorescence, transfected HEK293T cells). The source says:
Overexpressed Akt proteins were labeled with Cy5-small-molecule-fluorophore-conjugated azide (Cy5-azide) using standard click chemistry. FIG. 16A top gel is an image showing Cy5 channel (used to evaluate the extent of covalent binding on each Akt protein). The lysate from non-transfected HEK 293T cells was also used for comparison. M, molecular weight ladder. […] FIG. 16B top gel is an image showing Cy5 channel. M is a molecular weight ladder. FIG. 16B bottom is an image showing western blots probing Halo and actin, respectively. […] Error bars designate s.d. […] Normalized fluorescent signal (NFS) was calculated from the following equation: NFS=[(Cy5(X μM drug)−Cy5(No transfection))/Halo(X μM drug)]÷[(Cy5(no drug)−Cy5(No transfection))/Halo(no drug)]. The relative fluorescent signal (RFS) is calculated from the following equation: RFS=(Cy5(X μM drug)/Halo(X μM drug)) (Cy5(no drug)/Halo(no drug))
Cell transfection with the designated plasmid encoding a given HaloTag-Akt fusion gene was carried out following the general procedure described in Example 12. After 20-24 hours, the transfection media were aspirated and replaced with fresh 2 mL rinse MEM medium supplemented with 3% FBS containing the indicated concentration of inhibitor or the equivalent final volume of DMSO and the plates were incubated for the indicated period of time. […]

In the next assay the target is T1, Halo-Akt3 (Homo sapiens, UniProt Q9Y243).
T1 construct: expressed in transfected cells; host or cells: HEK293T
The assay is described as follows: In-gel fluorescence assay (Cy5-azide click) of covalent labeling in transfected HEK293T cells. As to conditions: 5 μM, 48 hours. On the procedure: HEK293T cells were transfected with Halo-Akt3 for 20 hours, then treated with the stated compound (5 μM, 48 hours). After this time, cells were lysed and the labeling was assayed by click chemistry. […] FIGS. 19A, 19C top gels are images showing in gel fluorescence, Cy5 channel. M is a molecular weight ladder. FIG. 19A, 19C lower panels are images of western blots (probing for Halo and actin, respectively) transferred from the same gel as the top image. […] FIGS. 19E-19F are graphs showing quantitation of in-gel Cy5 signal intensity, divided by the western blot signal for Halo.
Cell transfection with the designated plasmid encoding a given HaloTag-Akt fusion gene was carried out following the general procedure described in Example 12. After 20-24 hours, the transfection media were aspirated and replaced with fresh 2 mL rinse MEM medium supplemented with 3% FBS containing the indicated concentration of inhibitor or the equivalent final volume of DMSO and the plates were incubated for the indicated period of time. Cells were then harvested and lysed following the general procedure described in Examples 11 and 13. A portion of the lysate was made up to 25 μL final volume containing, in final concentrations, 5% t-BuOH, [2 mM TCEP, 1% SDS, 1 mM CuSO4, 0.1 mM Cu(TBTA), 10 μM Cy5 azide made up as a 10× stock in water] and 1.0 mg/mL lysate protein. The samples were incubated at 37° C. for 30 min and subsequently quenched with 8 μL of 4×Laemmeli dye containing 6% f ME. After an additional 5-min incubation at 37° C., samples were resolved on a 10% SDS-PAGE gel following the general procedure described in Example 14. After electrophoresis, the gel was rinsed three times with ddH2O and imaged on a Bio-Rad Chemi-doc-MP Imager. Where applicable, the gel was transferred to a PVDF membrane for western blot analysis following the general procedure described in Example 15.

The next assay deals with MDA-MB-468. Nature of the assay: Cell viability assay (AlamarBlue). As to conditions: MDA-MB-468, 72 hours. The method, then: (§1) FIGS. 22A and 22D are graphs showing results of cytotoxicity assays for MDA-MB-468 (FIG. 22A) and BT-549 (FIG. 22D). […] Stated cell lines were plated in 96-well plates (3000 cells per well) in the presence of the stated concentration of inhibitor. After 72 hours, the number of viable cells was analyzed by AlamarBlue®. Proliferation inhibition 50% (PI50) values were calculated by fitting data to “PI50 equation” (EQN 4) (FIG. 22C). MDA cells were transfected with the stated siRNA using lipofectamine 3000 for 12 hours. […] After 72 hours, the number of viable cells was calculated using AlamarBlue®. FIG. 22F is a schematic showing AlamarBlue® viability assay. […] MDA-MB-468 cells were treated with the stated drugs for 72 hours at the PI60 and PI80. After this time, cells were harvested, fixed/permeabilized with ethanol and DNA content was stained using propidium iodide (visualized in the 488-3 channel). RNA was removed simultaneously using RNAse. After 30 min at room temperature, cells were analyzed by flow cytometry.
(§2) Indicated cells were plated in a 96-well plate containing the DMEM complete medium (see Example 11 for complete medium formulation, 100 μL per well) with a density of 3,000-5,000 cells per well for 12 hours followed by the addition of varying concentrations of inhibitors in rinse medium (100 μL). The cells were allowed to grow for 72 hours and 100 μL of the culture medium was removed from each well. This was followed by the addition of 10 μL AlamarBlue® reagent to each well. The fluorescence emission signals at 590 nm were read by Cytation 3 cell imaging multi-mode reader (BioTeK) using an excitation wavelength of 560 nm. Curve fitting and data analysis were performed using Prism software.

Another assay deals with BT-549. Nature of the assay: Cell viability assay (AlamarBlue). As to conditions: BT-549, 72 hours. On the procedure: as §1, §2

T1 sequence (Q9Y243 whole entry): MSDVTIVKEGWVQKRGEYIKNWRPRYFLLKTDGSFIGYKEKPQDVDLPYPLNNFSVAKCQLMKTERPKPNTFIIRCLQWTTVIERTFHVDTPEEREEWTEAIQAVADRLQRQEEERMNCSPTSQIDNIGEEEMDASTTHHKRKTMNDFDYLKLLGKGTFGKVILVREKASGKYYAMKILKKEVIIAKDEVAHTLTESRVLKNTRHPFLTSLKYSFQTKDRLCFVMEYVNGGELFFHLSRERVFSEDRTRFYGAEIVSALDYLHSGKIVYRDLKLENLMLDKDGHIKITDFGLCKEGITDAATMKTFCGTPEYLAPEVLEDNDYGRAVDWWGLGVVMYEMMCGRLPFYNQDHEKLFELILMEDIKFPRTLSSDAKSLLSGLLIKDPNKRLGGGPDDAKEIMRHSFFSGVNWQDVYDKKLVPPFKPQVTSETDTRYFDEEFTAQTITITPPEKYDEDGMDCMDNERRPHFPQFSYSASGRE

With `CC(C)NC[C@@H](C(=O)N1CCN(c2ncnc3c2[C@H](C)C[C@H]3O)CC1)c1ccc(Cl)cc1` [GDC-0068], in the assay with MDA-MB-468 cells (drug at PI60, 72 hours), the “G1/G0 (percentage of cells in phase)” value turned out to be 52.6, the “G2/M (percentage of cells in phase)” value is on record as 28.3, the “S (percentage of cells in phase)” value is 12.1 and the “subG0 (percentage of cells in phase)” value is on record as 1.64.
As for `CCn1c(-c2nonc2N)nc2c(C#CC(C)(C)O)ncc(OC[C@H]3CCCNC3)c21` [GSK-69063], in the assay on MDA-MB-468 cells (drug at PI80, 72 hours), the “G1/G0 (percentage of cells in phase)” value is 47.7, the “G2/M (percentage of cells in phase)” value turned out to be 30.0, the “S (percentage of cells in phase)” value turned out to be 14.3 and the “subG0 (percentage of cells in phase)” value was determined as 0.92.
For the molecule `C#CCCCC(O)C=CC=O` (stereo not shown) [HNE alkyne], in the assay with MDA-MB-468 cells (drug at PI60, 72 hours), the “G1/G0 (percentage of cells in phase)” value is 40.0, the “G2/M (percentage of cells in phase)” value turned out to be 30.8, the “S (percentage of cells in phase)” value worked out at 26.3 and the “subG0 (percentage of cells in phase)” value is listed as 3.7. In the assay with MDA-MB-468 cells (drug at PI80, 72 hours), the “G1/G0 (percentage of cells in phase)” value turned out to be 28.5, the “G2/M (percentage of cells in phase)” value was 22, the “S (percentage of cells in phase)” value was 31.3 and the “subG0 (percentage of cells in phase)” value was 18.2.
`CCCCCC(O)/C=C/C=O` (stereo not shown) [HNE, hydroxynonenal]: the “effect on cell cycle” value in the assay with MDA-MB-468 cells (72 hours) is listed as “S-phase arrest; also recorded: loss of G1”.
Take `C#CCCCCC(O)C(=C)C(=O)NC1(c2ccc(-c3nc4ccn5c(=O)[nH]nc5c4cc3-c3ccccc3)cc2)CCC1.Cl` (stereo not shown) [MK-G, 8-(4-(1-(3-Hydroxy-2-methylenenon-8-ynamido)cyclobutyl)phenyl)-3-oxo-9-phenyl-2,3-dihydro-[1,2,4]triazolo[3,4-f][1,6]naphthyridin-7-ium Chloride]: in assay [1], the “Akt isozyme selectivity of inhibition” value was “no isozyme-selective inhibition”.
Turning to `C#CCCCC(O)CCC(=O)NC1(c2ccc(-c3nc4ccn5c(=O)[nH]nc5c4cc3-c3ccccc3)cc2)CCC1.Cl` (stereo not shown) [MK-HNA, 8-(4-(1-(4-Hydroxynon-8-ynamido)cyclobutyl)phenyl)-3-oxo-9-phenyl-2,3-dihydro-[1,2,4]triazolo[3,4-f][1,6]naphthyridin-7-ium Chloride], at Halo-Akt3, the “covalent labeling of Halo-Akt3” value is reported as “no covalent labeling was observed”.
Regarding `C#CCCCC/C=C/C(=O)NC1(c2ccc(-c3nc4ccn5c(=O)[nH]nc5c4cc3-c3ccccc3)cc2)CCC1` [MK-dHNE, (E)-8-(4-(1-(Non-2-en-8-ynamido)cyclobutyl)phenyl)-3-oxo-9-phenyl-2,3-dihydro-[1,2,4]triazolo[3,4-f][1,6]naphthyridin-7-ium Chloride], the “covalent labeling of Halo-Akt3” value at Halo-Akt3 was “able to elicit covalent labeling”. Besides, the “toxicity / potency relative to MK-2206” value in the assay on MDA-MB-468 and with BT-549 was “less effective than MK-2206” each time.

Values taken from patent US20200148682A1, “AKT ISOZYME-SPECIFIC COVALENT INHIBITORS DERIVED FROM REDOX-SIGNALING LIPIDS” (Cornell University, priority 2017, published 2020).
